Results reported in BindingDB's records for doi:10.1016/j.bmcl.2017.09.048 (St. John'S University, 2017).

How the values were obtained:
[1] = Inhibition of ABL T315I mutant in mouse BAF3 cells assessed as reduction in cell viability after 72 hrs by MTT assay
[2] = Inhibition of ABL in mouse BAF3 cells assessed as reduction in cell viability after 72 hrs by MTT assay

Row | Structure (SMILES) | IC50 [1] [µM] | IC50 [2] [µM]
1 | COc1cc(N2CCN(C)CC2)ccc1Nc1ncc(Cl)c(Oc2cccc(NC(C)=O)c2)n1 | 5.56 | 2.91
2 | C=CC(=O)Nc1cccc(Oc2nc(Nc3ccc(N4CCN(C)CC4)cc3OC)ncc2Cl)c1 | 16.3 | 9.69
3 | COc1cc(N2CCN(C)CC2)ccc1Nc1ncc(Cl)c(Oc2cccc([N+](=O)[O-])c2)n1 | 9.15 | 6.8
4 | COc1cc(N2CCN(C)CC2)ccc1Nc1ncc(Cl)c(Oc2cccc(N=C=S)c2)n1 | 4.99 | 8.41
5 | COc1cc(N2CCN(C)CC2)ccc1Nc1ncc(Cl)c(Oc2cccc(NC(=O)CO)c2)n1 | 1.12 | 1.48
6 | COc1cc(N2CCN(C)CC2)ccc1Nc1ncc(Cl)c(Oc2ccc([N+](=O)[O-])cc2)n1 | 6.89 | 3.48
7 | COc1cc(N2CCN(C)CC2)ccc1Nc1ncc(Cl)c(Oc2ccc(N=[N+]=[N-])cc2)n1 | 15.1 | 13.1
8 | COc1cc(N2CCN(C)CC2)ccc1Nc1ncc(Cl)c(Oc2ccc(NC(=O)CCO)cc2)n1 | 3.35 | 3.25
9 | C=CC(=O)Nc1ccc(Oc2nc(Nc3ccc(N4CCN(C)CC4)cc3OC)ncc2Cl)cc1 | 7.7 | 6.39
10 | COc1cc(N2CCN(C)CC2)ccc1Nc1ncc(Cl)c(Oc2ccc(N=C=S)cc2)n1 | 9.53 | 7.5
11 | COc1cc(N2CCN(C)CC2)ccc1Nc1ncc(Cl)c(Oc2ccc(NC(=O)CO)cc2)n1 | 2.74 | 6.68
12 | COc1cc(N2CCN(C)CC2)ccc1Nc1ncc(Cl)c(Oc2ccccc2[N+](=O)[O-])n1 | 11.6 | 6.81
13 | COc1cc(N2CCN(C)CC2)ccc1Nc1ncc(Cl)c(Oc2ccccc2N=C=S)n1 | 8.99 | 5.56
14 | COc1cc(N2CCN(C)CC2)ccc1Nc1ncc(Cl)c(Oc2ccccc2NC(=O)CO)n1 | 4.18 | 2.07
15 | COc1cc(N2CCN(C)CC2)ccc1Nc1ncc(Cl)c(Oc2ccccc2N)n1 | 5.74 | 6.73
16 | COc1cc(N2CCN(C)CC2)ccc1Nc1ncc(Cl)c(Oc2ccccc2NC(=O)/C=C/CN(C)C)n1 | 8.12 | 9.1
17 | COc1cc(N2CCN(C)CC2)ccc1Nc1ncc(Cl)c(Oc2ccccc2NC(=O)CCO)n1 | 3.86 | 2.12

Row | Structure (SMILES) | IC50 [1] [µM] | IC50 [2] [µM]
18 | COc1cc(N2CCN(C)CC2)ccc1Nc1ncc(Cl)c(Oc2cccc(NC(=O)COCc3ccccc3)c2)n1 | 2.87 | 2.44
19 | COc1cc(N2CCN(C)CC2)ccc1Nc1ncc(Cl)c(Oc2cccc(NC(=O)CCOCc3ccccc3)c2)n1 | 2.49 | 2.47
20 | COc1cc(N2CCN(C)CC2)ccc1Nc1ncc(Cl)c(Oc2cccc(NC(=O)CCO)c2)n1 | 1.39 | 2.07
21 | COc1cc(N2CCN(C)CC2)ccc1Nc1ncc(Cl)c(Oc2ccc(N)cc2)n1 | 5.47 | 2.81
22 | COc1cc(N2CCN(C)CC2)ccc1Nc1ncc(Cl)c(Oc2ccc(NC(C)=O)cc2)n1 | 2.89 | 2.08
23 | COc1cc(N2CCN(C)CC2)ccc1Nc1ncc(Cl)c(Oc2ccc(NC(=O)/C=C/CN(C)C)cc2)n1 | 3.41 | 4.72
24 | COc1cc(N2CCN(C)CC2)ccc1Nc1ncc(Cl)c(Oc2ccc(NC(=O)COCc3ccccc3)cc2)n1 | 3.62 | 2.11
25 | COc1cc(N2CCN(C)CC2)ccc1Nc1ncc(Cl)c(Oc2ccc(NC(=O)CCOCc3ccccc3)cc2)n1 | 1.5 | 1.43
26 | COc1cc(N2CCN(C)CC2)ccc1Nc1ncc(Cl)c(Oc2cccc(N)c2)n1 | 1.96 | 1.9
27 | COc1cc(N2CCN(C)CC2)ccc1Nc1ncc(Cl)c(Oc2cccc(N=[N+]=[N-])c2)n1 | 4.67 | 3.87
28 | COc1cc(N2CCN(C)CC2)ccc1Nc1ncc(Cl)c(Oc2cccc(NC(=O)/C=C/CN(C)C)c2)n1 | 6.02 | 7.02
29 | C=CC(=O)Nc1ccccc1Oc1nc(Nc2ccc(N3CCN(C)CC3)cc2OC)ncc1Cl | 2.37 | 2.92
30 | COc1cc(N2CCN(C)CC2)ccc1Nc1ncc(Cl)c(Oc2ccccc2NC(C)=O)n1 | 4.73 | 8.49
31 | COc1cc(N2CCN(C)CC2)ccc1Nc1ncc(Cl)c(Oc2ccccc2N=[N+]=[N-])n1 | 1.33 | 1.45
32 | COc1cc(N2CCN(C)CC2)ccc1Nc1ncc(Cl)c(Oc2ccccc2NC(=O)COCc2ccccc2)n1 | 3.5 | 1.37
33 | COc1cc(N2CCN(C)CC2)ccc1Nc1ncc(Cl)c(Oc2ccccc2NC(=O)CCOCc2ccccc2)n1 | 3.06 | 3.12
